The nature of the data set: Agilent ZORBAX 300 SB-C18, 150 × 1 mm, 3.5 µm; A: water + 0.01% heptafluorobutyric acid; B: acetonitrile + 0.01% heptafluorobutyric acid; gradient (min/%B) 0/0 100/90. Conditions: stereoisomer not certain.
For the molecule `Cc1ccc(N2C3=C(C(=O)CC(C)(C)C3)C(c3ccccc3)C3=C2c2ccccc2C3=O)cc1` (stereo not given), the LC retention time was determined as 18.4 min.
For `Cc1cc(O)c(C(C)C)cc1CNC(=O)c1ccccc1O` the value was 14.4 min; for `Cc1cncc(C)c1`, 6.88 min.
For `CC(N)C(=O)Nc1ccc2ccccc2c1` (stereo not given) the value was 9.02 min.
Under `c1ccc(C2CN3CCSC3=N2)cc1` (stereo not given) stands 8.73 min.
Turning to `c1ccc(-c2cc3cc4c(cc3[nH]2)OCO4)cc1`, the LC retention time was 15.1 min.
`CCCCNCC(=O)Nc1ccc(NC(=O)CNCCCC)cc1`: the LC retention time was found to be 8.26 min.
Regarding `Cc1ccc(C)c(-c2cc(C)ncc2C)c1`, the LC retention time stood at 10.6 min.
Under `c1ccc2[nH]cnc2c1` stands 7.09 min.
For `CN1Cc2ccccc2CC1C(=O)O` (stereo not given) the value was 6.42 min; for `C#CCN(C)C`, 4.22 min.
For `CNCCc1ccccn1`, the LC retention time is 6.92 min.
Under `Cc1cccc(CN2CCN(CN3C(=O)c4ccccc4C3=O)CC2)c1` stands 10.3 min; under `O=C(O)C1CCCN1Cc1ccccc1` (stereo not given), 6.6 min; under `S=C1NCN(C2CCCCC2)CN1`, 8.07 min.
Under `CC(=O)Oc1ccc(C(=O)N2CCc3ccccc32)cc1` stands 13.2 min.
`Cc1ccc(C)nc1`: the LC retention time turned out to be 6.66 min.
For `CN1C(=O)CC(CN)c2ccccc21` (stereo not given) the value was 7.58 min; for `CCN(CC)c1ccc(C=NNC(=O)C(C)Nc2ccc3ccccc3c2)cc1` (stereo not given), 14.3 min; for `CCCCCNC=O`, 8.68 min.
With `CC1CC(C)(C)Nc2c(O)cccc21` (stereo not given), the LC retention time came out at 8.99 min.
As to `Cc1cc(-c2noc(-c3ccco3)n2)c2ccccc2n1`, the LC retention time worked out at 13.1 min.
For `O=C(O)c1cc(=O)[nH]c(=O)[nH]1` the value was 1.33 min; for `O=C(CC1NC(=O)N(C2CCCCC2)C1=O)Nc1cccnc1` (stereo not given), 9.1 min; for `Cc1ccc(-c2cnc3ccccc3n2)c(C)c1`, 17.4 min.
In the case of `COC(=O)CCC1CCCNC1` (stereo not given), the LC retention time is 7.49 min.
Consider `O=Cc1ccc[nH]1`, for which the LC retention time is 6.97 min.
For `CCN(CC)c1ccc(CCN)cc1` the value was 8.39 min.
For `Cn1c(=O)cc(O)c2ccccc21` the value was 9.12 min; for `Cn1cccc1CC(=O)NN=CC=Cc1ccccc1`, 12.7 min; for `NCCCNCCN`, 7.42 min.
Under `CN1CCOC1=O` stands 3.96 min.
As for `O=c1ccc2nc3ccc(O)cc3oc-2c1`, the LC retention time worked out at 9.57 min.
Under `COc1ccc(Cc2c(O)n(-c3ccccc3)c(=O)[nH]c2=O)c(OC)c1` stands 11.6 min; under `CC(=O)c1ccc(-n2cccc2)cc1`, 13.2 min.
Under `CCN(CC)C(=O)c1ccc(O)c(OC)c1` stands 9.39 min.
Under `Cc1ccc(C)n1-c1ccc(C(=O)O)cc1` stands 13 min; under `Cc1cc(N)cc(C)c1O`, 6.91 min; under `Cc1ccc2nc(C)[nH]c2c1`, 8.32 min.
Regarding `Cc1cccc(C=NNC(=O)c2cc3ccccc3cc2O)c1`, the LC retention time came out at 14.9 min.
Under `Oc1cccc(N2Cc3ccccc3C2)c1` stands 13.9 min; under `CCN(CC)CCNc1c(N)c(=O)oc2ccccc12`, 8.37 min; under `CCN(CC)CCOC(=O)c1ccc(N)cc1`, 8.41 min.
Under `CCn1c2ccccc2c2cc(C=NNC(=O)c3ccc(C)cc3)ccc21` stands 15.7 min.
Under `c1cc(-c2nn[nH]n2)cc(-n2cccn2)c1` stands 9.34 min.
As for `C[N+](C)(C)CC(=O)O`, the LC retention time was 1.67 min.
Under `Cc1cccc(-n2c(C)nc3ccccc3c2=O)c1` stands 11.9 min; under `Cc1[nH]c2ccc(C(=O)O)cc2c1CC(=O)O`, 8.13 min; under `CCCCc1ccc(NC=CC(=O)c2ccc(C)cc2)cc1`, 21.5 min.
Under `O=C(O)c1cncc(C(=O)O)c1` stands 3.03 min; under `c1ccc(CN2CCN(Cc3ccccc3)C2c2cccs2)cc1`, 11 min.
For `OCC(CO)(CO)c1ccccn1` the value was 4.36 min.
Take `Cc1ccc(N)cc1`: the LC retention time worked out at 7.62 min.
Regarding `Cn1c(=O)n(C)c2cc(N3CCCCC3)c(N)cc21`, the LC retention time was found to be 8.49 min.
Under `CC(C)CC1(C)NC(=S)N(c2ccccc2)N1` (stereo not given) stands 14.1 min; under `CCNc1cc(C)ccc1O`, 7.6 min.
Under `Cc1ccc2ccc3ccc(C)nc3c2n1` stands 8.67 min.
Under `O=C(CNc1cccc2ccccc12)NN=CC=Cc1ccccc1` stands 15.5 min.
For the molecule `CC(=O)c1cccc(NC(=O)c2ccc(C)cc2)c1`, the LC retention time was 13 min.
For `CCOC(=O)C1CCC(=O)N1` (stereo not given) the value was 6.88 min; for `Cc1ncc[nH]1`, 4.53 min.
As to `O=C(O)C1(c2ccccc2)CCCCN1` (stereo not given), the LC retention time came to 6.67 min.
With `NCCCNCCNCCCN`, the LC retention time is 7.73 min.
For `Cc1cccc(C(=O)N2CCc3c([nH]c4ccccc34)C2c2ccccc2)c1` (stereo not given) the value was 17.8 min; for `O=C1CCNc2ccc(-c3ccccc3)cc21`, 13.1 min.
As for `Nc1ccc(N2CCOCC2)c(N)c1`, the LC retention time came out at 7.33 min.
Under `COC1=CC(=O)C(=O)C=C1OC` stands 7.13 min.
For `CCn1c(C)c(C(C)=O)c(C(C)=O)c1C` the value was 9.56 min.
Turning to `CC1NCCC2(O)CCCCC12` (stereo not given), the LC retention time came out at 7.09 min.
Under `COc1ccc(OC)c(NC(=O)Cn2c(=O)n(C)c(=O)n(C)c2=O)c1` stands 10.7 min; under `Cc1ccc2[nH]ccc2c1`, 12.8 min; under `c1nc2c(ccc3[nH]cnc32)[nH]1`, 6.84 min.
Regarding `CCCCCCCCCCn1c(CCC)nc2ccccc21`, the LC retention time amounted to 15.6 min.
Under `Cc1nc(C)c(C)nc1C` stands 7.72 min; under `O=C1c2ccccc2-c2nc3ccccc3nc21`, 13 min.
As to `Cn1cnc2ccccc21`, the LC retention time amounted to 7.26 min.
As for `CC(=Nc1ccc(N=Nc2ccccc2)cc1)N(C)C`, the LC retention time worked out at 10.9 min.
For `C=CCN1CCC23c4c5ccc(O)c4OC2C(=O)CCC3(O)C1C5` (stereo not given) the value was 8.17 min; for `O=c1c2ccccc2ncn1Cc1ccncc1`, 8.03 min.
For `O=S(=O)(O)c1ccc(Nc2ccccc2)cc1` the value was 7.25 min.
For `Nc1ncc2[nH]cnc2n1` the value was 5.52 min; for `CC(C)CC(NC(=O)CN)C(=O)O` (stereo not given), 7.75 min.
For `Nc1ccc2c(c1)CCC2`, the LC retention time was 8.35 min.
Turning to `CC(=NNC(=O)CNC(=O)c1ccco1)c1ccc(C(C)(C)C)cc1`, the LC retention time was determined as 13.9 min.
Turning to `Cc1cccc(NC(=O)c2ccc3nccnc3c2)n1`, the LC retention time is 9.62 min.
Under `Nc1c2ccccc2nc2ccccc12` stands 8.38 min.
For the molecule `CC(=NNC(=O)C[n+]1ccccc1)c1ccccc1`, the LC retention time came to 8.76 min.
For `CC(=O)N1C(=O)N(C(C)=O)C(O)C1O` (stereo not given) the value was 6.42 min; for `NCCCOc1ccccc1`, 8.2 min; for `O=C(O)Cc1c[nH]c(=O)[nH]c1=O`, 2.17 min.
For `Cn1c(=O)n(C)c(=O)n(CC(=O)N2CCCCC2)c1=O` the value was 8.88 min; for `O=C(O)CNC(=O)Nc1ccccc1`, 7.74 min; for `CCCCCCN(C)C`, 8.53 min.
For `Cc1ccc(C(=O)c2cccc(N)c2)cc1C` the value was 13 min; for `CCOC(CN1CCCCC1)OCC`, 8.11 min; for `CN(N)c1nc(N2CCCC2)nc(N2CCCC2)n1`, 10.3 min.
For the molecule `CC1CNCCN1` (stereo not given), the LC retention time stood at 6.48 min.
As for `O=C(CCCCCN1C(=O)c2ccccc2C1=O)Nc1cccc(C(=O)O)c1`, the LC retention time worked out at 11.6 min.
For `O=C1NN=C(c2ccccc2)CC1c1c[nH]c2ccccc12` (stereo not given) the value was 12.3 min.
Under `CN(C)CCN(C)CCN(C)C` stands 6.9 min; under `CN(Cc1ccccc1)C(=S)Nc1cccnc1`, 9.65 min; under `O=C1C(=Cc2ccco2)C(=O)c2ccccc21`, 14 min.
Take `COC(=O)Cn1c(C)cc(C)c(N)c1=O`: the LC retention time turned out to be 7.8 min.
Consider `Cc1ccc(C(=O)NCCc2c(C)[nH]c3ccccc23)cc1`, for which the LC retention time was determined as 13.6 min.
For `CCN(CC)c1ccc(C(=O)NCC(C)C)cc1` the value was 11.7 min; for `CCOC(=O)c1ccc(NC(=O)N2CCCC2)cc1`, 11.6 min.
Under `Cn1c(=O)c2n[nH]c(=S)nc2n(C)c1=O` stands 7.17 min; under `CCCCN(C)C(=O)Cn1c(=O)c2c(C)cc(C)nc2n(-c2ccccc2)c1=O`, 15 min; under `COc1ccc2c(c1)C(C)CC(C)(C)N2` (stereo not given), 9.43 min.
For `CN1CCCCC1=O` the value was 7.29 min.
For `COC(=O)c1[nH]c2ccccc2c1C(=O)OC`, the LC retention time was 11.3 min.
For `CCc1c(C)nc2c(O)cccn2c1=O` the value was 8.76 min.
Under `COCCCN1CCC(CN)C1` (stereo not given) stands 7.37 min; under `CCCCCCCCCC[N+](C)(C)C`, 12.3 min; under `Cc1cccc(OCC(O)CNC(C)C)c1` (stereo not given), 9.65 min.

For the origin of these results see the RepoRT retention time repository.
